# Assays:
# [1] = Pull-down with EAT-2 Y127 phosphopeptide from NK92 lysates, LC-MS/MS; format: binding, human; conditions: NK92 cell lysates
# Method: (§1) For pull-down of associated proteins, streptavidin Sepharose (GE Healthcare) was pre-coated with saturating amounts of peptide or EAT-2. NK92 cells (4×10^8) were treated with 500 μM pervanadate for 15 minutes, then lysed in PBS, 1% Triton X-100, 1 mM sodium orthovanadate in the presence of mammalian protease inhibitor solution (Sigma). Lysates were pre-cleared by centrifugation, followed by incubation with streptavidin Sepharose. Peptide or EAT-2-coated streptavidin beads were incubated with NK92 lysates for 2 hours at 4°C with rotation. Beads were washed once with 15 ml ice cold PBS/1% (v/v) Triton X-100. Bound protein was eluted using 100 mM glycine-HCl pH 2.5.
# Protein samples were prepared for mass spectrometry as described previously. Briefly, eluted proteins were spun onto the membranes of Vivacon 500 filters (10,000 MWCO – Sartorius). Membranes were washed once with PBS then proteins were denatured with 8 M urea, reduced with 10 mM DTT in 25 mM ammonium bicarbonate buffer, followed by alkylation with 50 mM iodoacetamide. Proteins were then digested overnight with trypsin. Tryptic peptides were then eluted from the membrane and analyzed on an Ultimate 3000 HPLC-coupled Orbitrap XL mass spectrometer. […] Raw data files were converted to mzXML format using ReADW (v. 4.2.1) and submitted to the Central Proteomics Facilities Pipeline for database comparison and peptide identification. […]
# NK92 cells = experiment: IFNγ production by NK92 cells; format: cell-based, human; conditions: TJW, unpublished
# [2] = Pull-down with phosphorylated CD244 ITSM1 from NK cell lysates, LC-MS/MS; format: binding; conditions: human NK cell lysates; compared with control phosphopeptide SHIP-1 Y865
# Method: as §1
# Protein samples were prepared for mass spectrometry as described previously. Briefly, eluted proteins were spun onto the membranes of Vivacon 500 filters (10,000 MWCO – Sartorius). Membranes were washed once with PBS then proteins were denatured with 8 M urea, reduced with 10 mM DTT in 25 mM ammonium bicarbonate buffer, followed by alkylation with 50 mM iodoacetamide. Proteins were then digested overnight with trypsin. Tryptic peptides were then eluted from the membrane and analyzed on an Ultimate 3000 HPLC-coupled Orbitrap XL mass spectrometer. Proteins were identified by liquid chromatography-coupled tandem mass-spectrometry (LC-MS/MS). Raw data files were converted to mzXML format using ReADW (v. 4.2.1) and submitted to the Central Proteomics Facilities Pipeline for database comparison and peptide identification. Searching against the International Protein Index (IPI) human protein sequence database for protein identification, protein and peptide hits were statistically validated by applying a 1% false discovery rate (FDR) by searching against a concatenated target/decoy database. Datasets were searched with variable peptide modifications for phosphotyrosine, phosphoserine, phosphothreonine, oxidation of methionine and deamination.
# Protein identification data were exported into ProteinCenter (v3.8.3013 – Thermo Fisher) for filtering and annotation. Results were filtered to remove any proteins with less than 3 unique peptides, less than 10 percent sequence coverage, or median protein probability scores less than 0.5. To establish sample specificity, any protein with at least 10-fold greater sequence coverage in one sample compared with the other was considered to be specific for that sample.
# Similarly, differences in specificity of inhibitory SH2 domain containing proteins for ITSMs are relevant to understanding mechanisms of inhibition by ITSMs. We focused on CD244 ITSMs to establish general paradigms.
Substance,pull-down by EAT-2 Y127 [1],effect on IFNγ production by NK92 cells (NK92 cells),pull-down by CD244 ITSM1 [2]
Fyn: Src-family kinase,Notably absent from this list,–,–
PLCγ1: phospholipase C gamma-1,–,inhibitory,pulled down by the ITSM peptide

# From article PMC3958483, “Fine Specificity and Molecular Competition in SLAM Family Receptor Signalling” (PLoS ONE, 2014)
